This assay deals with T1, CviR (LuxR homologue) (Chromobacterium violaceum, UniProt D3W065).
T1 construct: CviR ORF in pET28a, SUMO + His-tag fusion, E. coli BL21 (DE3), Ni-Sepharose, eluted by ULP proteinase digestion; RED-NHS labelled
Put plainly: microscale thermophoresis (RED-NHS labelled CviR). Format: binding.

The mark [1] stands for this setting: 50 mM Tris-HCl, 150 mM NaCl, 10 mM MgCl2, 0.05% Tween-20, labelled protein, stated 20 μM CviR.

Read-outs that look alike come from different tables or passages of the source.

T1 sequence (D3W065 1-265): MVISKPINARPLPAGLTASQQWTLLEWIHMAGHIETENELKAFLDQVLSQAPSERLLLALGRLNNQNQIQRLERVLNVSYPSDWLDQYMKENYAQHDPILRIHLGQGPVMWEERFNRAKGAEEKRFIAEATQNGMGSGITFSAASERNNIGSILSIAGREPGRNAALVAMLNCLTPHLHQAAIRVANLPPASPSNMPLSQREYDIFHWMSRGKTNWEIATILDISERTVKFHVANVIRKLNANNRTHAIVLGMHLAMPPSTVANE

As to `O=C(/C=C/c1ccc(O)c(O)c1)c1ccc(O)cc1O` [BN1, Butein], the Kd entry under setting [1] was “MST results suggested that all the QSIs except C7X have significant binding ability”.

The compound `CC(C)=CCc1cc2c(cc1O)O[C@H](c1ccc(O)cc1)CC2=O` [BN2, Bavachin] displayed a dissociation constant Kd of 45.1 ± 1.9 nM. Turning to `Oc1ccc2c(c1)OC[C@](O)(Cc1ccc(O)c(O)c1)[C@H]2O` [SPL, Sappanol], the dissociation constant (Kd) result under setting [1] is “MST results suggested that all the QSIs except C7X have significant binding ability”.

Broadly, the Kd is the constant that tells how readily two partners part at equilibrium. The low end stands for higher affinity, the high end for lower affinity.

The record behind these values is article PMC6132053, “Virtual Screening and Biomolecular Interactions of CviR-Based Quorum Sensing Inhibitors Against Chromobacterium violaceum” (Frontiers in Cellular and Infection Microbiology, 2018).
